# Reference: patent US8420640B2, “Methods of treating amyloid disease using analogs of 1-(4-nitrophenyl) piperazine” (Treventis Corporation, priority 2008, dated 2013)
# Target: T1, Aβ40 (Homo sapiens, UniProt P05067)
# T1 construct: Compounds Showing Activity Observed in a ThT Functional Aβ 1-40 Aggregation Assay
# Assay: ThT functional Aβ 1-40 aggregation assay
# Type: biochemical
# Conditions: for IC50: 20 μM Aβ, 20 mM Tris pH 7.4, 150 mM NaCl, 1% DMSO, 37° C.; for Ratio: potency with respect to the compound of Example 7, 1=potency of that compound
# Experimental: Aβ40 (1.0 mg) was pre-treated in a 1.5 mL microfuge tube with HFIP (1 mL) and sonicated for 20 min to disassemble any pre-formed Aβ aggregates. The HFIP was removed with a stream of argon and the Aβ dissolved in Tris base (5.8 mL, 20 mM, pH ˜10). The pH was adjusted to 7.4 with concentrated HCl (˜10 μL) and the solution filtered using a syringe filter (0.2 μm) before being used.
# The kinetic ThT assay for Aβ aggregation is similar to that of Chalifour et al (Chalifour et al, 2003, J. Biol. Chem. 278:34874-81). Briefly, pre-treated Aβ40 (40 μM in 20 mM Tris, pH 7.4), was diluted with an equal volume of 8 μM ThT in Tris (20 mM, pH 7.4, 300 mM NaCl). Aliquots of Aβ/ThT (200 μL) were added to wells of a black polystyrene 96-well plate, followed by 2 μL of a compound in DMSO (variable concentration), or DMSO alone (controls). Incubations were performed in triplicate and were taken to contain 20 μM Aβ, various concentration of compound in 20 mM Tris, pH 7.4, 150 mM NaCl, 1% DMSO. Plates were covered with clear polystyrene lids and incubated at 37° C. in a Tecan Genios microplate reader. Fluorescence readings (λex=450 nm, λem=480 nm) were taken every 15 min., after first shaking at high intensity for 15 s and allowing to settle for 10 s before each reading. Active compounds attenuated the increase in fluorescence over time that occurred in controls. By repeating this procedure over several concentrations, a mean inhibitory concentration (IC50) was measured, as given in the table below. The column “A-syn” represents a similar procedure measuring inhibition of alpha-synuclein aggregation. The column “ratio” is a reproducible assessment of potency with respect to the compound of Example 7, in which 1=potency of that compound: […]
# T1 sequence (P05067 672-711 limits assumed): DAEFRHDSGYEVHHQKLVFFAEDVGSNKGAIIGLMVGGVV
SMILES,IC50 [µM],Ratio
O=C(O)c1ccccc1-c1ccc([N+](=O)[O-])c(NCc2ccccc2)c1,41.9,0.5
CN(C)c1ccc(N2CCN(C(=O)c3ccccc3)CC2)cc1N(C)c1ccccc1,148,0.25
O=[N+]([O-])c1ccc(N2CCCCC2)cc1Nc1ccccc1,> 100,–
O=[N+]([O-])c1ccc(N2CCN(S(=O)(=O)c3ccccc3)CC2)cc1Nc1ccccc1,> 50,–
O=C(Nc1ccccc1)c1cccc(-c2ccc([N+](=O)[O-])c(NCc3ccccc3)c2)c1,5730,0
O=C(c1ccccc1)N1CCN(c2cccc([N+](=O)[O-])c2)CC1 [drawing 151],360,0.06
O=C(Nc1ccccc1)c1ccccc1-c1ccc([N+](=O)[O-])c(NCc2ccccc2)c1,152,0.03
O=C(c1nnc[nH]1)N1CCN(c2ccc([N+](=O)[O-])c(NCc3ccc(Cl)cc3)c2)CC1,1.4,–
CC(=O)N1CCN(c2ccc([N+](=O)[O-])c(N3CCc4ccccc4C3)c2)CC1,4.03,–
Nc1ccc(N2CCN(C(=O)c3ccccc3)CC2)cc1Nc1ccccc1,1.9,9.9
CCN(CC)C(=O)c1ccc(N2CCN(C(=O)c3ccccc3)CC2)cc1NCc1ccccc1,361,0.05
O=C(O)C1CCN(c2ccc([N+](=O)[O-])c(NCc3ccccc3)c2)CC1,23,0.89
CC(=O)N1CCN(c2ccc([N+](=O)[O-])c(NCc3ccccc3)c2)CC1,25.8,0.58
CN(C)C(=O)c1ccc(N2CCN(C(=O)c3ccccc3)CC2)cc1NCc1ccccc1,84,0.11
O=C(c1ccccc1)N1CCN(c2cccc([N+](=O)[O-])c2)CC1 [drawing 132],196,0.04
CN(C)c1ccc([N+](=O)[O-])c(Nc2ccccc2)c1,39,0.15
O=C(O)c1ccc(N2CCN(C(=O)c3ccccc3)CC2)cc1NCc1ccccc1,189,0.05

SMILES,IC50 [µM],Ratio
O=C(c1ccccc1F)N1CCN(c2ccc([N+](=O)[O-])c(NCc3ccco3)c2)CC1,2.1,–
O=[N+]([O-])c1ccc(N2CCNCC2)cc1Nc1ccccc1,8.82,0.54
O=[N+]([O-])c1ccccc1NCc1ccccc1,63,0.38
Nc1cccc(N2CCN(C(=O)c3ccccc3)CC2)c1,428,0.05
O=C(c1ccccc1)N1CCN(c2ccc(NCCN3CCOCC3)c(Nc3ccccc3)c2)CC1,54.4,0.17
O=C(c1cccs1)N1CCN(c2ccc([N+](=O)[O-])c(-n3nc(-c4ccccc4)c4ccccc4c3=O)c2)CC1,> 20,–
CN(c1ccccc1)c1cc(N2CCN(C(=O)c3ccccc3)CC2)ccc1N,15.5,0.65
O=C(NCc1ccccc1)C1CCN(c2ccc([N+](=O)[O-])c(NCc3ccccc3)c2)CC1,975,0.03
O=C(O)C1CCCN(c2ccc([N+](=O)[O-])c(NCc3ccccc3)c2)C1 (stereo not shown),21.7,0.88
O=C(NCc1ccccc1)c1ccccc1-c1ccc([N+](=O)[O-])c(NCc2ccccc2)c1,631,0.02
CN1CCN(c2ccc([N+](=O)[O-])c(Nc3ccccc3)c2)CC1,23.2,0.42
O=[N+]([O-])c1ccc(Br)cc1NCc1ccccc1,20 to 50,–
O=C(c1ccccc1)N1CCN(c2ccc([N+](=O)[O-])cc2Nc2ccccc2)CC1,92,0.34
O=C(c1ccccc1)N1CCN(c2cccc(Nc3ccccc3)c2)CC1,539,0.05
CCc1ccc(C(=O)N2CCN(c3ccc([N+](=O)[O-])c(N4CCOCC4)c3)CC2)cc1,2.7,–
CNc1ccc(N2CCN(C(=O)c3ccccc3)CC2)cc1N(C)c1ccccc1,7.8,1.3
